For 14 compounds, melting point results are on record in patent US7687507B2, “Pyrrolo[2,3-d]pyrimidine compounds” (Pfizer Inc., priority 1998, dated 2010).

`CCN(Cc1ccccc1)c1ncnc2[nH]ccc12` [Example 2, Benzyl-ethyl-(7H-pyrrolo[2,3-d]pyrimidin-4-yl)-amine] returned a melting point of 170 to 172 °C. To `C=CCN(c1ncnc2[nH]ccc12)C1CCCC1` [Example 6, Allyl-cyclopentyl-(7H-pyrrolo[2,3-d]pyrimidin-4-yl)-amine] belongs 173 to 175 °C.

On to `CCN(c1ncnc2[nH]ccc12)C1CCCCCC1` [Example 14, Cycloheptyl-ethyl-(7H-pyrrolo[2,3-d]pyrimidin-4-yl)-amine], for which the melting point fell in the range of 168 to 169 °C.

The compound `CCN(c1ncnc2[nH]ccc12)C1CCCCCCC1` [Example 15, Cyclooctyl-ethyl-(7H-pyrrolo[2,3-d]pyrimidin-4-yl)-amine] gave a melting point of 155 to 156 °C. The compound `CCC(C)N(C)c1ncnc2[nH]ccc12` (centres unmarked) [Example 26, sec-Butyl-methyl-(7H-pyrrolo[2,3-d]pyrimidin-4-yl)-amine] displayed a melting point of 146 to 148 °C. As for `Cc1cc2c(N(C)C3CCCCC3)ncnc2[nH]1` [Example 87, Cyclohexyl-methyl-(6-methyl-7H-pyrrolo[2,3-d]pyrimidin-4-yl)-amine], the figure is 221 °C (dec.). For `c1nc(SC2CCCCC2)c2cc[nH]c2n1` [Example 90, 4-Cyclohexylsulfanyl-7H-pyrrolo[2,3-d]pyrimidine], the melting point lay in the range of 162 to 163 °C. Regarding `Clc1c[nH]c2ncnc(N3CCCCC3)c12` [Example 91, 5-Chloro-4-piperidin-1-yl-7H-pyrrolo[2,3-d]pyrimidine], the melting point was in the range of 170 to 172 °C. As for `CN(c1ncnc2[nH]cc(Cl)c12)C1CCCCCC1` [Example 93, (5-Chloro-7H-pyrrolo[2,3-d]pyrimidin-4-yl)-cycloheptyl-methyl-amine], the figure is 152 to 153 °C; as for `CN(c1ncnc2[nH]cc(Cl)c12)C1CCCCCCC1` [Example 94, (5-Chloro-7H-pyrrolo[2,3-d]pyrimidin-4-yl)-cyclooctyl-methyl-amine], 151 to 153 °C; as for `CN(c1ncnc2[nH]cc(-c3ccccc3)c12)C1CCCCC1` [Example 96, Cyclohexyl-methyl-(5-phenyl-7H-pyrrolo[2,3-d]pyrimidin-4-yl)amine], 200 °C.

In turn, `CN(c1ncnc2[nH]cc(-c3ccc(F)cc3)c12)C1CCCCC1` [Example 97, Cyclohexyl-[5-(4-fluoro-Phenyl)-7H-pyrrolo[2,3-d]pyrimidin-4-yl]-methyl-amine] showed a melting point of 220 °C. To `N#Cc1c[nH]c2ncnc(N3CCCCC3)c12` [Example 100, 4-Piperidin-1-yl-7H-pyrrolo[2,3-d]pyrimidine-5-carbonitrile] belongs 209 to 211 °C; to `C#Cc1c[nH]c2ncnc(N3CCCCC3)c12` [Example 101, 5-Ethynyl-4-piperidin-1-yl-7H-pyrrolo[2,3-d]pyrimidine], 179 to 181 °C.

By melting point is commonly meant the temperature of the solid-liquid transition.
